Source: ChEMBL document CHEMBL4270552, “4-(Phenoxy) and 4-(benzyloxy)benzamides as potent and selective inhibitors of mono-ADP-ribosyltransferase PARP10/ARTD10” (Eur J Med Chem, 2018)

Assays:
[1] = biological target: T1, Protein mono-ADP-ribosyltransferase PARP10 (Homo sapiens, UniProt Q53GL7); assay: Inhibition of C-terminal His-tagged human ARTD10 (809 to 1017 residues) expressed in Escherichia coli Rosetta2 (DE3) using SRPK2 as substrate after 13 hrs in presence of NAD+
T1 sequence (Q53GL7 whole entry): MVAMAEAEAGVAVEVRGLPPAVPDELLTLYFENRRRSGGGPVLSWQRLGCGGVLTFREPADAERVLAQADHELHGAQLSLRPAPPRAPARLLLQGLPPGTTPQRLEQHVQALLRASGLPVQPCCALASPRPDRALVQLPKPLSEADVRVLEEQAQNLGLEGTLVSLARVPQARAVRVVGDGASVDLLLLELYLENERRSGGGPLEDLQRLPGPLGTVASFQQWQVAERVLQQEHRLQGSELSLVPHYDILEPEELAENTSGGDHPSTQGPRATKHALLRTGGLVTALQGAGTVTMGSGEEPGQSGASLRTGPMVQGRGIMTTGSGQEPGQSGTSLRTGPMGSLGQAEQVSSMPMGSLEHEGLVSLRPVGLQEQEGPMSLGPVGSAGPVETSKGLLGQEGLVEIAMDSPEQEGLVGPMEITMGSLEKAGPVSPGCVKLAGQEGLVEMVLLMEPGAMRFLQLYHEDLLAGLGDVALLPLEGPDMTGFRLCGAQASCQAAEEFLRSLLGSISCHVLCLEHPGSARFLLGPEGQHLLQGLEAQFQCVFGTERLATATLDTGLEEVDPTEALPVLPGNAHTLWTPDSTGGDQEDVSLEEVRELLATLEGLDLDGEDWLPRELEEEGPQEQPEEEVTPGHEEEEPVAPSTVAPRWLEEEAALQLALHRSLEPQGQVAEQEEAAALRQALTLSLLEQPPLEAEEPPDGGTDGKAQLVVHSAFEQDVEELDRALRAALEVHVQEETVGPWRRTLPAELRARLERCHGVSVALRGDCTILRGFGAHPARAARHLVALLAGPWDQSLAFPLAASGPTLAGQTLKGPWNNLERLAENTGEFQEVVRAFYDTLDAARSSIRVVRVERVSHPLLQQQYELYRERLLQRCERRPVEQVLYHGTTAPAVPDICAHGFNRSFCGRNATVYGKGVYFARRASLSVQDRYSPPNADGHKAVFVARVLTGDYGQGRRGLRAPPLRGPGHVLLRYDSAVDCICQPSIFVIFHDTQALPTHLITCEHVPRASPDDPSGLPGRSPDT

[2] = biological target: Protein mono-ADP-ribosyltransferase PARP4 (Homo sapiens, UniProt Q9UKK3); assay: Inhibition of N-terminal His-tagged human ARTD4 (250 to 565 residues) expressed in Escherichia coli Rosetta2 (DE3) using TCEP as substrate after 2.5 hrs in presence of NAD+
Sequence of Protein mono-ADP-ribosyltransferase PARP4 (Q9UKK3 whole entry, the tested form may be a part): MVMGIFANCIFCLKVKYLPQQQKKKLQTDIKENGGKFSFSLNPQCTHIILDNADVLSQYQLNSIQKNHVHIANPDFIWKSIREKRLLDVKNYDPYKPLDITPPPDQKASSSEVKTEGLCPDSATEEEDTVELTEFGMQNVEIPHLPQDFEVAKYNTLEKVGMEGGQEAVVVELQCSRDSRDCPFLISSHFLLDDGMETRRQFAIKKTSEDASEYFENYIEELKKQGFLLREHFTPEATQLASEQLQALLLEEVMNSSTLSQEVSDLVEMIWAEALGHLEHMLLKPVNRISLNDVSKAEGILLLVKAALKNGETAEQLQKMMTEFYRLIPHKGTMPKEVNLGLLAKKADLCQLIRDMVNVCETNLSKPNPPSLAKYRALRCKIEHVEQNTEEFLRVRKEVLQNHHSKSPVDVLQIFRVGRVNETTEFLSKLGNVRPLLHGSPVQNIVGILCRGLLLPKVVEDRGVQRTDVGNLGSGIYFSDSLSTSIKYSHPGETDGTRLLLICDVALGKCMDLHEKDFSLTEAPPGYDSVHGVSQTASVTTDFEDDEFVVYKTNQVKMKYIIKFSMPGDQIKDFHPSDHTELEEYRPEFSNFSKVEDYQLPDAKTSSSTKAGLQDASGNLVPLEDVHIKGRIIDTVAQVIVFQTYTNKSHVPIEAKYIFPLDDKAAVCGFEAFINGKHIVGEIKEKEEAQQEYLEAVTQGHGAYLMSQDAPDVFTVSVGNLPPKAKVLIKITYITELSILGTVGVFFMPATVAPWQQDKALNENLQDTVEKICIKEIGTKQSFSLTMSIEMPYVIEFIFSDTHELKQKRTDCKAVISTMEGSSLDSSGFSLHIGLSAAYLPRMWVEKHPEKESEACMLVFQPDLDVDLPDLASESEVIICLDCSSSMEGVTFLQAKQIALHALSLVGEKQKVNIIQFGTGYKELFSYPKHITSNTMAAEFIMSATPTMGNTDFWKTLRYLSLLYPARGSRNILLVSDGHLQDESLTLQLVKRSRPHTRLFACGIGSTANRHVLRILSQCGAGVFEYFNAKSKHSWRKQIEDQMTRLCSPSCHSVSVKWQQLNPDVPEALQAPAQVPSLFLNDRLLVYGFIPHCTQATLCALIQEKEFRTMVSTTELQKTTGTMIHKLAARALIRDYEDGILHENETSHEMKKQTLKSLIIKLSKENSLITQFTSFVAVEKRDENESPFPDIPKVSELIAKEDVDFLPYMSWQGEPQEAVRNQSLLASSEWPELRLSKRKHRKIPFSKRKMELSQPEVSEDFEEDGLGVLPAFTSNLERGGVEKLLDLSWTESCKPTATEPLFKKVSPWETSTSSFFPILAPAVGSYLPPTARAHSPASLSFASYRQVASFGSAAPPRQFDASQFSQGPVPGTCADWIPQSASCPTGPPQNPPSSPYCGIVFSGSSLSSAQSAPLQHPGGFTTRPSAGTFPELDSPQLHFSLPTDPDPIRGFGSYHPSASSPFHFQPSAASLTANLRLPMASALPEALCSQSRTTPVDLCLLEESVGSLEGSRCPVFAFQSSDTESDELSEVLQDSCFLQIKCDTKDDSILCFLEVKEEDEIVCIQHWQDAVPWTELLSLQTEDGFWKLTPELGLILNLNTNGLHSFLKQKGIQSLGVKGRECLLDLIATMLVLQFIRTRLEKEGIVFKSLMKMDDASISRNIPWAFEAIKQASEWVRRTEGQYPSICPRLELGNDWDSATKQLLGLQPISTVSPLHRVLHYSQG

[3] = biological target: T2, Protein mono-ADP-ribosyltransferase PARP12 (Homo sapiens, UniProt Q9H0J9); assay: Inhibition of N-terminal His-tagged thioredoxin-fused human ARTD12 (469 to 701 residues) expressed in Escherichia coli Rosetta2 (DE3) after 20 hrs in presence of NAD+
T2 sequence (Q9H0J9 whole entry): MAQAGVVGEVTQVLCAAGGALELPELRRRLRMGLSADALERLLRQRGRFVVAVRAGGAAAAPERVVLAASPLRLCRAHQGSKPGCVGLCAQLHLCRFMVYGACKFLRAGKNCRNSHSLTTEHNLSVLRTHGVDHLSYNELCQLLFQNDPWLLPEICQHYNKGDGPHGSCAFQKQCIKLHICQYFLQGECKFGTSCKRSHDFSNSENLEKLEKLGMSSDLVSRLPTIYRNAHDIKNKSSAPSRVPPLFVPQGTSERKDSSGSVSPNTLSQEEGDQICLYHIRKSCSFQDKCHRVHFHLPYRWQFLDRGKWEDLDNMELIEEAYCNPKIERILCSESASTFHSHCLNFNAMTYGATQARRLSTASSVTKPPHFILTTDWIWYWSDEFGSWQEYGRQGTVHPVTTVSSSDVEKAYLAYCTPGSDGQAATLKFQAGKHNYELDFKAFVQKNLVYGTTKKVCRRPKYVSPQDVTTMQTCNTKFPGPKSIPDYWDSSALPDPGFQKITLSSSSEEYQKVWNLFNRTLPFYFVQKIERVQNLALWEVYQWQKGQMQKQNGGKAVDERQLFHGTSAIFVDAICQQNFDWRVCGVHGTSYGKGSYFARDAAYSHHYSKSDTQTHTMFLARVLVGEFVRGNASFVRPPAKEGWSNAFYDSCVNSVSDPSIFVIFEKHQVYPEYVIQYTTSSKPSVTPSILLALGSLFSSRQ

[4] = biological target: T3, Protein mono-ADP-ribosyltransferase PARP10 (Homo sapiens) (UniProt Q53GL7)
T3 sequence (whole entry): T1 sequence (Q53GL7 whole entry)
Description: Stabilization of C-terminal His-tagged human ARTD10 (809 to 1017 residues) expressed in Escherichia coli Rosetta2 (DE3) assessed as change in melting temperature at 100 uM by SYPRO Orange-dye based differential scanning fluorimetric method

[5] = biological target: Protein mono-ADP-ribosyltransferase PARP9 (Homo sapiens) (UniProt Q8IXQ6)
Description: Stabilization of human ARTD9 expressed in Escherichia coli assessed as change in melting temperature at 100 uM by SYPRO Orange-dye based differential scanning fluorimetric method

[6] = biological target: Zinc finger CCCH-type antiviral protein 1 (Homo sapiens) (UniProt Q7Z2W4)
Sequence of Zinc finger CCCH-type antiviral protein 1 (Homo sapiens) (Q7Z2W4 whole entry): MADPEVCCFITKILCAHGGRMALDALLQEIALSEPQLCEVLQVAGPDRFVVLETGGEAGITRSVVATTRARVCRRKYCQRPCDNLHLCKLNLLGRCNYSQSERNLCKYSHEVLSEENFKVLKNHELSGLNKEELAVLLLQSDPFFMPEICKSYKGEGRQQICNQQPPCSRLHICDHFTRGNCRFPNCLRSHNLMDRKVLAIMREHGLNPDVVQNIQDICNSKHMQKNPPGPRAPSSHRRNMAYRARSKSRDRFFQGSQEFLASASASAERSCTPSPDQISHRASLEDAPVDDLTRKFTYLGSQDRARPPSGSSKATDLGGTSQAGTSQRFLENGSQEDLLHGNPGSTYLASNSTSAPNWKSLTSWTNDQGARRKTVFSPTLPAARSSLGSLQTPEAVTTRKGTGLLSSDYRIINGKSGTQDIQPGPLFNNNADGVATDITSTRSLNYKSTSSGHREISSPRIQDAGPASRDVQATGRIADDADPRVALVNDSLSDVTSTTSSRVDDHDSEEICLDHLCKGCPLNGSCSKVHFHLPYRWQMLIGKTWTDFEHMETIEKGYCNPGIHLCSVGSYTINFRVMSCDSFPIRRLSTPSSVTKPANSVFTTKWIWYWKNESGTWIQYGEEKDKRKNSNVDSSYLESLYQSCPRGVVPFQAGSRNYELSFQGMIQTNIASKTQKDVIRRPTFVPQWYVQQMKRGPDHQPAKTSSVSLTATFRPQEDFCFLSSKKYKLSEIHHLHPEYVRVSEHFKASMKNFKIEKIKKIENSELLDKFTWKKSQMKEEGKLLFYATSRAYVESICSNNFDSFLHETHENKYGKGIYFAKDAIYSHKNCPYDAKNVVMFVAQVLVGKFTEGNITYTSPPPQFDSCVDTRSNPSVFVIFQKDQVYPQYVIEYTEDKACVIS
Description: Stabilization of human ARTD13 expressed in Escherichia coli assessed as change in melting temperature at 100 uM by SYPRO Orange-dye based differential scanning fluorimetric method

SMILES	IC50 ([1]; read-out: IC50)	IC50 ([1]; read-out: pIC50 (converted))	further results
NC(=O)c1ccc(OCc2ccccc2Br)cc1	3800 nM	3800 nM	–
Cc1ccc(COc2ccc(C(N)=O)cc2)cc1	9300 nM	9330 nM	–
NC(=O)c1ccc(COc2ccc(C(N)=O)cc2)cc1	2000 nM	–	–
NC(=O)c1ccc(OCc2cccc(F)c2)cc1	3300 nM	3310 nM	–
Cc1cc(C)cc(COc2ccc(C(N)=O)cc2)c1	4500 nM	4570 nM	–
NC(=O)c1ccc(Oc2ccc(O)cc2)cc1	1800 nM	1740 nM	–
CCOc1ccc(C(N)=O)cc1	3500 nM	3390 nM	–
NC(=O)c1ccc(OC(=O)c2ccccc2)cc1	7300 nM	7240 nM	–
NC(=O)c1ccc(OCCOc2ccccc2)cc1	1900 nM	1950 nM	–
NC(=O)c1ccc(Oc2ccc(C(N)=O)cc2)cc1	–	–	IC50 [2]: 23 µM; IC50 [3]: > 10 µM; ΔTm [4]: 3.8 °C; ΔTm [5]: 0.72 °C; ΔTm [6]: 0.4 °C
NC(=O)c1ccc(OCc2ccc(F)cc2)cc1	7900 nM	7940 nM	–

More lines, in order of falling IC50 ([1]; read-out: IC50), values ahead:

IC50 ([1]; read-out: IC50)	IC50 ([1]; read-out: pIC50 (converted))	SMILES	further results
1700 nM	1700 nM	NC(=O)c1ccc(Oc2ccccc2F)cc1	–
1400 nM	1350 nM	NC(=O)c1ccc(OCc2ccccc2)cc1	–
1400 nM	1380 nM	COc1ccc(Oc2ccc(C(N)=O)cc2)cc1	–
1400 nM	1450 nM	NC(=O)c1ccc(OCc2cccc3ccccc23)cc1	–
1350 nM	1350 nM	NC(=O)c1ccc(OCc2ccccn2)cc1	–
1300 nM	1260 nM	NC(=O)c1ccc(Oc2ccc(N)cc2)cc1	–
1300 nM	1260 nM	CC(C)Oc1ccc(C(N)=O)cc1	–
1100 nM	1150 nM	NC(=O)c1ccc(Oc2ccccc2)cc1	–
720 nM	724 nM	NC(=O)c1ccc(OC2CCC2)cc1	–
